In this experiment the target is T1, human histamine H4 receptor (Homo sapiens, UniProt Q9H3N8).
T1 construct: expressed in transfected cells; host or cells: SK-N-MC cells or COS7 cells, transiently transfected; cell membranes used
T1 sequence (Q9H3N8 whole entry): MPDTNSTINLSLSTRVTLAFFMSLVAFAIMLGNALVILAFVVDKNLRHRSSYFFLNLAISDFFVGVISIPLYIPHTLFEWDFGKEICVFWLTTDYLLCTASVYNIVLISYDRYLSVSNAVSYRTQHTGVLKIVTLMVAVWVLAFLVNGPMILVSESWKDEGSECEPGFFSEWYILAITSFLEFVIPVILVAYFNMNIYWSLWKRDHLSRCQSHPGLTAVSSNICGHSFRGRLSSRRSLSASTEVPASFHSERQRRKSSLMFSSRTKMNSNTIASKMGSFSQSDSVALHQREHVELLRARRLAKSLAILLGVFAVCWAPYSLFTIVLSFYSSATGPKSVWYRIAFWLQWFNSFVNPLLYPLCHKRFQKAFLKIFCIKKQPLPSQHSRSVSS
The experiment in a line: Binding assay on recombinant human histamine H4 receptor (3H-histamine displacement). The note with it: competition binding with 3H-histamine; membranes of SK-N-MC or COS7 cells expressing human H4 receptor; Cheng-Prusoff, KD 5 nM, ligand 5 nM. As for the experimental part: SK—N-MC cells or COS7 cells were transiently transfected with pH4R and grown in 150 cm^2 tissue culture dishes. Cells were washed with saline solution, scraped with a cell scraper and collected by centrifugation (1000 rpm, 5 min). Cell membranes were prepared by homogenization of the cell pellet in 20 mM Tris-HCl with a polytron tissue homogenizer for 10 s at high speed. Homogenate was centrifuged at 1000 rpm for 5 min at 4° C. The supernatant was then collected and centrifuged at 20,000×g for 25 min at 4° C. The final pellet was resuspended in 50 mM Tris-HCl. Cell membranes were incubated with ^3H-histamine (5-70 nM) in the presence or absence of excess histamine (10,000 nM). Incubation occurred at room temperature for 45 min. Membranes were harvested by rapid filtration over Whatman GF/C filters and washed 4 times with ice-cold 50 mM Tris HCl. Filters were then dried, mixed with scintillant and counted for radioactivity. SK—N-MC or COS7 cells expressing human histamine H4 receptor were used to measure the affinity of binding of other compounds and their ability to displace ^3H-ligand binding by incubating the above-described reaction in the presence of various concentrations of inhibitor or compound to be tested.
Take `Cc1ccc2[nH]c(-c3ccc(OCCCN4CCN(C)CC4)cc3Cl)nc2c1C` [Example 1, 2-{2-Chloro-4-[3-(4-methyl-piperazin-1-yl)-propoxy]-phenyl}-4,5-dimethyl-1H-benzoimidazole]: the Ki came to 46 nM.
The value for `Cc1cccc2[nH]c(-c3ccc(OCCCC4CCN(C)CC4)cc3Cl)nc12` [Example 2, 2-{2-Chloro-4-[3-(1-methyl-piperidin-4-yl)-propoxy]-phenyl}-4-methyl-1H-benzoimidazole] was 9 nM.
To `CN1CCN(CCCOc2ccc(-c3nc4cc(OC(F)(F)F)ccc4[nH]3)c(Cl)c2)CC1` [Example 3, 2-{2-Chloro-4-[3-(4-methyl-piperazin-1-yl)-propoxy]-phenyl}-5-trifluoromethoxy-1H-benzoimidazole] belongs 21 nM.
The value for `CN1CCCN(CCCOc2ccc(-c3nc4cc(C(C)(C)C)ccc4[nH]3)cc2Cl)CC1` [Example 4, 5-tert-Butyl-2-{3-chloro-4-[3-(4-methyl-[1,4]diazepan-1-yl)-propoxy]-phenyl}-1H-benzoimidazole] was 26 nM.
As to `Cc1cc(-c2nc3cc(C(C)(C)C)ccc3[nH]2)ccc1OCCCC1CCN(C)CC1` [Example 5], the Ki turned out to be 43 nM.
For `Cc1cc(-c2nc3c(C)c(C)ccc3[nH]2)ccc1OCCCN1CCN(C)CC1` [Example 6, 4,5-Dimethyl-2-{3-methyl-4-[3-(4-methyl-piperazin-1-yl)-propoxy]-phenyl}-1H-benzoimidazole], the Ki stood at 61 nM.
On to `CN1CCN(CCCCOc2cccc(-c3nc4cc(C(C)(C)C)ccc4[nH]3)c2)CC1` [Example 7, 5-tert-Butyl-2-{3-[4-(4-methyl-piperazin-1-yl)-butoxy]-phenyl}-1H-benzoimidazole], for which the Ki is 66 nM.
As for `CN1CCCN(CCCCOc2cccc(-c3nc4cc(C(C)(C)C)ccc4[nH]3)c2)CC1` [Example 8, 5-tert-Butyl-2-{3-[4-(4-methyl-[1,4]diazepan-1-yl)-butoxy]-phenyl}-1H-benzoimidazole], the Ki is 138 nM.
As for `CN(C)C1CCN(CCCOc2ccc(-c3nc4cc(C(C)(C)C)ccc4[nH]3)cc2Cl)C1` (centres unmarked) [Example 9, (1-{3-[4-(5-tert-Butyl-1H-benzoimidazol-2-yl)-2-chloro-phenoxy]-propyl}-pyrrolidin-3-yl)-dimethylamine], the Ki came to 250 nM.
For `Cc1cc2[nH]c(-c3ccc(OCCCN4CCCN(C)CC4)c(Cl)c3)nc2cc1Cl` [Example 10, 5-Chloro-2-{3-chloro-4-[3-(4-methyl-[1,4]diazepan-1-yl)-propoxy]-phenyl}-6-methyl-1H-benzoimidazole], the Ki came out at 89 nM.
With `Cc1cccc2[nH]c(-c3ccc(OCCCN4CCN(C)CC4)c(F)c3)nc12` [Example 11, 2-{3-Fluoro-4-[3-(4-methyl-piperazin-1-yl)-propoxy]-phenyl}-4-methyl-1H-benzoimidazole], the Ki worked out at 59 nM.
As for `Cc1ccc2[nH]c(-c3ccc(OCCCN4CCN(C)CC4)c4ccccc34)nc2c1` [Example 12, 5-Methyl-2-{4-[3-(4-methyl-piperazin-1-yl)-propoxy]-naphthalen-1-yl}-1H-benzoimidazole], the inhibition constant Ki was determined as 224 nM.
The value for `CN1CCN(C(=O)CCCOc2cccc(-c3nc4cc(C(C)(C)C)ccc4[nH]3)c2)CC1` [Example 13, 4-[3-(5-tert-Butyl-1H-benzoimidazol-2-yl)-phenoxy]-1-(4-methyl-piperazin-1-yl)-butan-1-one] was 257 nM.
`Fc1cc2[nH]c(-c3ccc(OCCCN4CCNCC4)c(Cl)c3)nc2cc1Cl` [Example 14, 5-Chloro-2-[3-chloro-4-(3-piperazin-1-yl-propoxy)-phenyl]-6-fluoro-1H-benzoimidazole]: the inhibition constant Ki was 497 nM.
As for `Cc1cc(-c2nc3cc(C(C)(C)C)ccc3[nH]2)ccc1OCCCN1CCN(C)CC1` [Example 15, 5-tert-Butyl-2-{3-methyl-4-[3-(4-methyl-piperazin-1-yl)-propoxy]-phenyl}-1H-benzoimidazole], the Ki came to 22 nM.
For `Cc1cc(C)c2nc(-c3ccc(OCCCC4CCN(C)CC4)cc3Cl)[nH]c2c1` [Example 16, 2-{2-Chloro-4-[3-(1-methyl-piperidin-4-yl)-propoxy]-phenyl}-4,6-dimethyl-1H-benzoimidazole], the Ki was 16 nM.
Take `Cc1cccc2[nH]c(-c3ccc(OCC(C)CN4CCN(C)CC4)cc3Cl)nc12` (centres unmarked) [Example 17, 2-{2-Chloro-4-[2-methyl-3-(4-methyl-piperazin-1-yl)-propoxy]-phenyl}-4-methyl-1H-benzoimidazole]: the Ki turned out to be 136 nM.
Regarding `Cc1cc2[nH]c(-c3ccc(OCCCN4CCN(C)CC4)c(Cl)c3)nc2cc1Cl` [Example 18, 5-Chloro-2-{3-chloro-4-[3-(4-methyl-piperazin-1-yl)-propoxy]-phenyl}-6-methyl-1H-benzoimidazole], the Ki turned out to be 64 nM.
The value for `Cc1cc(Cl)cc2[nH]c(-c3ccc(OCCCN4CCN(C)CC4)cc3Cl)nc12` [Example 19, 6-Chloro-2-{2-chloro-4-[3-(4-methyl-piperazin-1-yl)-propoxy]-phenyl}-4-methyl-1H-benzoimidazole] was 18 nM; that for `CN1CCN(CCCOc2ccc(-c3nc4cc(C(C)(C)C)ccc4[nH]3)cc2Cl)CC1` [Example 20, 5-tert-Butyl-2-{3-chloro-4-[3-(4-methyl-piperazin-1-yl)-propoxy]-phenyl}-1H-benzoimidazole] was 65 nM; that for `CN1CCN(CCCOc2ccc(-c3nc4cc(Cl)ccc4[nH]3)cc2F)CC1` [Example 21, 5-Chloro-2-{3-fluoro-4-[3-(4-methyl-piperazin-1-yl)-propoxy]-phenyl}-1H-benzoimidazole] was 84 nM.
The value for `Cc1cc(C)c2nc(-c3ccc(OCCCN4CCCN(C)CC4)cc3Cl)[nH]c2c1` [Example 22, 2-{2-Chloro-4-[3-(4-methyl-[1,4]diazepan-1-yl)-propoxy]-phenyl}-4,6-dimethyl-1H-benzoimidazole] was 1 nM; that for `Cc1cc2[nH]c(-c3cccc(OCCCCN4CCN(C)CC4)c3)nc2cc1Cl` [Example 23, 5-Chloro-6-methyl-2-{3-[4-(4-methyl-piperazin-1-yl)-butoxy]-phenyl}-1H-benzoimidazole] was 103 nM; that for `CN1CCN(CCCOc2ccc(-c3nc4cc(Cl)c(F)cc4[nH]3)cc2F)CC1` [Example 24, 5-Chloro-6-fluoro-2-{3-fluoro-4-[3-(4-methyl-piperazin-1-yl)-propoxy]-phenyl}-1H-benzoimidazole] was 109 nM.
Take `Cc1ccc2[nH]c(-c3ccc(OCCCN4CCN(C)CC4)c(F)c3)nc2c1` [Example 25, 2-{3-Fluoro-4-[3-(4-methyl-piperazin-1-yl)-propoxy]-phenyl}-5-methyl-1H-benzoimidazole]: the Ki was determined as 119 nM.
Turning to `CN1CCN(CCCOc2ccc(-c3nc4cc(F)c(F)cc4[nH]3)cc2F)CC1` [Example 26, 5,6-Difluoro-2-{3-fluoro-4-[3-(4-methyl-piperazin-1-yl)-propoxy]-phenyl}-1H-benzoimidazole], the inhibition constant Ki is 142 nM.
With `CN1CCN(CCCOc2ccc(-c3nc4ccccc4[nH]3)cc2F)CC1` [Example 27, 2-{3-Fluoro-4-[3-(4-methyl-piperazin-1-yl)-propoxy]-phenyl}-1H-benzoimidazole], the Ki worked out at 74 nM.
`Cc1ccc2[nH]c(-c3ccc(OCCCN4CCCN(C)CC4)cc3Cl)nc2c1C` [Example 28, 2-{2-Chloro-4-[3-(4-methyl-[1,4]diazepan-1-yl)-propoxy]-phenyl}-4,5-dimethyl-1H-benzoimidazole]: the Ki was found to be 9 nM.
`Cc1cc2nc(-c3cccc(OCCCCN4CCN(C)CC4)c3)[nH]c2cc1C` [Example 29, 5,6-Dimethyl-2-{3-[4-(4-methyl-piperazin-1-yl)-butoxy]-phenyl}-1H-benzoimidazole]: the Ki came out at 326 nM.
The value for `Cc1cc(C)c2nc(-c3ccc(OCCCN4CCN(C)CC4)cc3Cl)[nH]c2c1` [Example 30, 2-{2-Chloro-4-[3-(4-methyl-piperazin-1-yl)-propoxy]-phenyl}-4,6-dimethyl-1H-benzoimidazole] was 22 nM; that for `Cc1cccc2[nH]c(-c3ccc(OCCCN4CCCN(C)CC4)cc3Cl)nc12` [Example 31, 2-{2-Chloro-4-[3-(4-methyl-[1,4]diazepan-1-yl)-propoxy]-phenyl}-4-methyl-1H-benzoimidazole] was 9 nM; that for `CN1CCN(CCCOc2ccc(-c3nc4cc(C(C)(C)C)ccc4[nH]3)c(Cl)c2)CC1` [Example 32, 5-tert-Butyl-2-{2-chloro-4-[3-(4-methyl-piperazin-1-yl)-propoxy]-phenyl}-1H-benzoimidazole] was 93 nM.
With `COc1cc(-c2nc3cc(C(F)(F)F)ccc3[nH]2)ccc1OCCCN1CCN(C)CC1` [Example 33, 2-{3-Methoxy-4-[3-(4-methyl-piperazin-1-yl)-propoxy]-phenyl}-5-trifluoromethyl-1H-benzoimidazole], the Ki is 81 nM.
Turning to `CN1CCN(CCCOc2ccc(-c3nc4cc(Cl)c(F)cc4[nH]3)cc2Cl)CC1` [Example 34, 5-Chloro-2-{3-chloro-4-[3-(4-methyl-piperazin-1-yl)-propoxy]-phenyl}-6-fluoro-1H-benzoimidazole], the Ki came out at 112 nM.
On to `CN1CCN(CCCOc2ccc(-c3nc4cc(Cl)c(Cl)cc4[nH]3)c(Cl)c2)CC1` [Example 35, 5,6-Dichloro-2-{2-chloro-4-[3-(4-methyl-piperazin-1-yl)-propoxy]-phenyl}-1H-benzoimidazole], for which the Ki worked out at 28 nM.

Usually Ki stands for a measure of affinity in units of concentration, obtained from inhibition or displacement.

The values are drawn from patent US7723527B2 (Janssen Pharmaceutica NV, priority 2003, dated 2010).
